Experimental data: ChEMBL document CHEMBL1201862, “PubChem BioAssay data set” (2004)
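Each compound was tested at five concentrations against cells in 96-well plates for 48 hours. Here, GI50 denotes the concentration required for 50% inhibition of growth.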 The source made the active and inactive calls. No stated cut-off is given here; in the data, active = GI50 up to about 1.1 µM and inactive = higher.

Columns and labels:
Experiment in all cases: DTP human tumour cell line panel, 48 h
[1] = tested on: UO-31
[2] = tested on: ACHN
[3] = tested on: HCT-116
[4] = tested on: NCI-H460
[5] = tested on: KM12
[6] = tested on: BT-549
[7] = tested on: OVCAR-3
[8] = tested on: RPMI-8226
[9] = tested on: SK-MEL-28
[10] = tested on: Hs-578T
[11] = tested on: PC-3
[12] = tested on: SK-OV-3
[13] = tested on: NCI-H226
[14] = tested on: MCF7
[15] = tested on: COLO 205
[16] = tested on: OVCAR-5
[17] = tested on: UACC-257
[18] = tested on: IGROV-1
[19] = tested on: MDA-N
[20] = tested on: M14
[21] = tested on: SF-295
[22] = tested on: SF-268
[23] = tested on: NCI-H23
[24] = tested on: Malme-3M
[25] = tested on: SK-MEL-2
[26] = tested on: T47D
[27] = tested on: A549
[28] = tested on: CAKI-1
[29] = tested on: HOP-62
[30] = tested on: NCI/ADR-RES
[31] = tested on: HT-29
[32] = tested on: MOLT-4
[33] = tested on: SNB-19
[34] = tested on: RXF 393
[35] = tested on: HCT-15
[36] = tested on: K562
[37] = tested on: MDA-MB-435
[38] = tested on: SNB-75
[39] = tested on: OVCAR-8
[40] = tested on: OVCAR-4
[41] = tested on: NCI-H522
[42] = tested on: TK-10
[43] = tested on: SR
[44] = tested on: HCC 2998
[45] = tested on: 786-0
[46] = tested on: EKVX
[47] = tested on: SK-MEL-5
[48] = tested on: U-251
[49] = tested on: LOX IMVI
[50] = tested on: SW-620
[51] = tested on: DU-145
[52] = tested on: SF-539
[53] = tested on: MDA-MB-231
[54] = tested on: SN12C
[55] = tested on: A498
[56] = tested on: HL-60
[57] = tested on: UACC-62
[58] = tested on: CCRF-CEM
[59] = tested on: HOP-92

Structure (SMILES): Cc1ccc(/C=C2/N/C(=N\N=C/c3ccccc3)NC2=O)cc1
- GI50 [1]: 18.4 µM (inactive)
- GI50 [2]: 17.3 µM (inactive)
- GI50 [3]: 28.6 µM (inactive)
- GI50 [4]: 31.6 µM (inactive)
- GI50 [5]: > 100 µM (inactive)
- GI50 [6]: 29.9 µM (inactive)
- GI50 [7]: 44.8 µM (inactive)
- GI50 [8]: 16.2 µM (inactive)
- GI50 [9]: 36.4 µM (inactive)
- GI50 [10]: 25.8 µM (inactive)
- GI50 [11]: 48.5 µM (inactive)
- GI50 [12]: 40.3 µM (inactive)
- GI50 [13]: > 100 µM (inactive)
- GI50 [14]: 28.8 µM (inactive)
- GI50 [15]: 56.5 µM (inactive)
- GI50 [16]: > 100 µM (inactive)
- GI50 [17]: > 100 µM (inactive)
- GI50 [18]: 51.6 µM (inactive)
- GI50 [19]: 28.2 µM (inactive)
- GI50 [20]: 31.7 µM (inactive)
- GI50 [21]: 28.9 µM (inactive)
- GI50 [22]: 77.1 µM (inactive)
- GI50 [23]: 54.2 µM (inactive)
- GI50 [24]: 42.5 µM (inactive)
- GI50 [25]: 39.4 µM (inactive)
- GI50 [26]: 28.7 µM (inactive)
- GI50 [27]: 44.2 µM (inactive)
- GI50 [28]: 38.5 µM (inactive)
- GI50 [29]: 54.6 µM (inactive)
- GI50 [30]: 33.3 µM (inactive)
- GI50 [31]: 46.3 µM (inactive)
- GI50 [32]: 21.9 µM (inactive)
- GI50 [33]: 25.8 µM (inactive)
- GI50 [34]: 26.5 µM (inactive)
- GI50 [35]: 30.9 µM
- GI50 [36]: 34.3 µM (inactive)
- GI50 [37]: 24.2 µM (inactive)
- GI50 [38]: 31.3 µM (inactive)
- GI50 [39]: 42.5 µM (inactive)
- GI50 [40]: 14.8 µM (inactive)
- GI50 [41]: 31.8 µM (inactive)
- GI50 [42]: 32.2 µM (inactive)
- GI50 [43]: 30.6 µM (inactive)
- GI50 [44]: 28.9 µM (inactive)
- GI50 [45]: 20.3 µM (inactive)
- GI50 [46]: 43.1 µM (inactive)
- GI50 [47]: 35 µM (inactive)
- GI50 [48]: 26 µM (inactive)
- GI50 [49]: 39.1 µM (inactive)
- GI50 [50]: 41.6 µM (inactive)
- GI50 [51]: 55.1 µM (inactive)
- GI50 [52]: 44.4 µM (inactive)
- GI50 [53]: 42.1 µM (inactive)
- GI50 [54]: 45.7 µM (inactive)

Structure (SMILES): COC(=O)c1c2c(cc3c1CCC3)CCC2
- GI50 [55]: 28.6 µM (inactive)
- GI50 [1]: 72.8 µM (inactive)
- GI50 [2]: > 100 µM (inactive)
- GI50 [3]: 39.6 µM (inactive)
- GI50 [4]: 94.6 µM (inactive)
- GI50 [5]: 65.3 µM (inactive)
- GI50 [6]: 95.9 µM (inactive)
- GI50 [7]: > 100 µM (inactive)
- GI50 [8]: 20.2 µM (inactive)
- GI50 [9]: 53.6 µM (inactive)
- GI50 [10]: 35.8 µM (inactive)
- GI50 [11]: 44.7 µM (inactive)
- GI50 [12]: 91.4 µM (inactive)
- GI50 [13]: 54.7 µM (inactive)
- GI50 [14]: 38.7 µM (inactive)
- GI50 [15]: 96.2 µM (inactive)
- GI50 [16]: > 100 µM (inactive)
- GI50 [17]: 48 µM (inactive)
- GI50 [18]: > 100 µM (inactive)
- GI50 [19]: 55.3 µM (inactive)
- GI50 [56]: 15.5 µM (inactive)
- GI50 [20]: > 100 µM (inactive)
- GI50 [21]: 29.9 µM (inactive)
- GI50 [22]: 95.7 µM (inactive)
- GI50 [23]: 80.7 µM (inactive)
- GI50 [24]: 48.2 µM (inactive)
- GI50 [25]: 24.8 µM (inactive)
- GI50 [26]: 13.3 µM (inactive)
- GI50 [27]: 61.2 µM (inactive)
- GI50 [28]: 72.4 µM (inactive)
- GI50 [29]: > 100 µM (inactive)
- GI50 [30]: > 100 µM (inactive)
- GI50 [31]: 26.3 µM (inactive)
- GI50 [57]: 51.1 µM (inactive)
- GI50 [32]: 21.6 µM (inactive)
- GI50 [33]: > 100 µM (inactive)
- GI50 [35]: 57.8 µM
- GI50 [36]: 29.6 µM (inactive)
- GI50 [37]: 70.8 µM (inactive)
- GI50 [38]: 28.4 µM (inactive)
- GI50 [58]: 20.1 µM (inactive)
- GI50 [39]: > 100 µM (inactive)
- GI50 [40]: 82.2 µM (inactive)
- GI50 [41]: 46.6 µM (inactive)
- GI50 [42]: 57.4 µM (inactive)
- GI50 [43]: 18.2 µM (inactive)
- GI50 [44]: 59.4 µM (inactive)
- GI50 [45]: 80.7 µM (inactive)
- GI50 [46]: 39.6 µM (inactive)
- GI50 [47]: 15.9 µM (inactive)
- GI50 [48]: 51.9 µM (inactive)
- GI50 [49]: 39.4 µM (inactive)
- GI50 [50]: > 100 µM (inactive)
- GI50 [51]: 65.8 µM (inactive)
- GI50 [52]: 92.7 µM (inactive)
- GI50 [53]: 37.7 µM (inactive)
- GI50 [54]: > 100 µM (inactive)

Structure (SMILES): O=C1NC(N2CCCCC2)=N/C1=C\c1ccccc1
- GI50 [1]: > 100 µM (inactive)
- GI50 [2]: > 100 µM (inactive)
- GI50 [3]: > 100 µM (inactive)
- GI50 [5]: > 100 µM (inactive)
- GI50 [6]: > 100 µM (inactive)
- GI50 [7]: > 100 µM (inactive)
- GI50 [8]: > 100 µM (inactive)
- GI50 [9]: > 100 µM (inactive)
- GI50 [10]: > 100 µM (inactive)
- GI50 [11]: > 100 µM (inactive)
- GI50 [12]: > 100 µM (inactive)
- GI50 [13]: > 100 µM (inactive)
- GI50 [14]: > 100 µM (inactive)
- GI50 [15]: > 100 µM (inactive)
- GI50 [16]: > 100 µM (inactive)
- GI50 [17]: > 100 µM (inactive)
- GI50 [18]: > 100 µM (inactive)
- GI50 [19]: > 100 µM (inactive)
- GI50 [56]: > 100 µM (inactive)
- GI50 [20]: > 100 µM (inactive)
- GI50 [21]: > 100 µM (inactive)
- GI50 [22]: > 100 µM (inactive)
- GI50 [23]: > 100 µM (inactive)
- GI50 [24]: > 100 µM (inactive)
- GI50 [25]: > 100 µM (inactive)
- GI50 [26]: > 100 µM (inactive)
- GI50 [27]: > 100 µM (inactive)
- GI50 [28]: > 100 µM (inactive)
- GI50 [29]: > 100 µM (inactive)
- GI50 [30]: > 100 µM (inactive)
- GI50 [31]: > 100 µM (inactive)
- GI50 [57]: > 100 µM (inactive)
- GI50 [32]: > 100 µM (inactive)
- GI50 [33]: > 100 µM (inactive)
- GI50 [34]: > 100 µM (inactive)
- GI50 [35]: > 100 µM
- GI50 [37]: > 100 µM (inactive)
- GI50 [38]: > 100 µM (inactive)
- GI50 [58]: > 100 µM (inactive)
- GI50 [39]: > 100 µM (inactive)
- GI50 [40]: > 100 µM (inactive)
- GI50 [41]: > 100 µM (inactive)
- GI50 [42]: > 100 µM (inactive)
- GI50 [43]: > 100 µM (inactive)
- GI50 [44]: > 100 µM (inactive)
- GI50 [45]: > 100 µM (inactive)
- GI50 [46]: > 100 µM (inactive)
- GI50 [48]: > 100 µM (inactive)
- GI50 [49]: > 100 µM (inactive)
- GI50 [50]: > 100 µM (inactive)
- GI50 [59]: > 100 µM (inactive)
- GI50 [51]: > 100 µM (inactive)
- GI50 [52]: > 100 µM (inactive)
- GI50 [53]: > 100 µM (inactive)
- GI50 [54]: > 100 µM (inactive)
